These results are taken from patent US10473670B2 (University of Kentucky Research Foundation, priority 2016, dated 2019).

The structures appear in SMILES notation.

For experiment [1], the system named is mTORC1 and ERK1/2 signaling. Description: Western blot of p-S6K1 and p-ERK1/2 in BON cells. The conditions noted are these: AICAR 3 h. Format: cell-based, human. How it is done: (§1) FIGS. 16A-D show graphs and images illustrating Cross-talk of AMPK and mTORC1 signaling. A. Diagram of cross-talk of AMPK and mTORC1 signaling. B. Western blot analysis of BON cells treated with or without AICAR (left panel) or 1 mM AICAR and CC (10 μM) (right panel) for 3 h. C. NT EIA (upper panel) and western blotting (lower panel) on BON cells expressing control vector and myc-raptor S722A/S792A treated with AICAR (1 mM) for 3 h. D. NT EIA (upper panel) and western blotting (lower panel) on BON cells expressing control vector and NTC and TSC2 siRNA treated with AICAR (1 mM) for 3 h. *p<0.05 vs. control in vector, †p<0.05 vs. AICAR in vector (C); *p<0.05 vs. control in NTC siRNA, †p<0.05 vs. control in NTC siRNA, ‡ p<0.05 vs. AICAR in NTC siRNA (D). n=6. All data are mean+/−SD.
AMPK activation inhibits mTORC1 through raptor, a component of mTORC1, or TSC2, a negative regulator of mTORC1 signaling. […] Moreover, a stable BON overexpression cell line was generated with a mutant raptor vector in which both Ser722 and Ser792 (AMPK phosphorylation sites) are replaced by alanine. […] Together, these findings further indicate the interaction of AMPK, mTORC1 and ERK signaling in the regulation of NT secretion.
On the technique in general: A western blot detects proteins with antibodies after separation by electrophoresis.

The test system of a further experiment is FHs74Int cells. Description: In vitro FA absorption (BODIPY FL C16) in FHs74Int cells. Format: cell-based, human. The conditions noted are these: AICAR 1 mM 3 h, BODIPY FL C16 15 min.
In experiment [2] the test system is AMPK. Description: Western blot of p-AMPK in FHs 74 Int cells. The experiment is classed as cell-based, human. The conditions noted are these: FHs 74 Int cells; AICAR 1 mM 2 h, oleate 0.1 mM 1 h.
Description: G. Human small intestinal cells (FHs74Int) (left panel) and RIE-1 cells (right panel) were treated with the indicated concentrations of oleate for 1 h and lysates were analyzed by western blotting. […] All data are mean+/−SD. Experiments in vitro were at least repeated three times.
The subject of the next experiment is BON cells. Description: NT secretion from BON cells (NT EIA). Format: cell-based, human. How it is done:
as §1, with “FIGS. 14A-C show graphs and images illustrating that FFA activates AMPK signaling and increases NT secretion. A. Plasma NT of male C57BL/6 mice (5-mo-old, n=5) 1 h after olive oil (OO) oral gavage. *p<0.05 vs. NC; n=5. B. NT EIA (upper panels) and western blotting (lower panels) on BON cells treated with or without OA for 1 h. C. NT EIA (upper panels) and western blotting (lower panels) on QGP-1 cells treated with or without OA for 1 h. *p<0.05 vs. control; n=6. All data are mean+/-SD. FIGS.” for “FIGS.”, “[…]/[…]” for “S722A/S792A”, “mean+/-SD. […]” for “mean+/−SD.”

The test system of experiment [3] is AMPK. Description: Western blot of p-AMPK in STC-1 cells. The experiment is classed as cell-based, mouse. The conditions noted are these: agonists 1 μM, 90 min, or OA. The source says: (§2) FIGS. 15A-B show graphs and images illustrating that FFAR1 and FFAR4 agonists increase AMPK activity. A. NT IF (left panel), NT EIA (middle panel, *p<0.05 vs. control) and western blotting (right panel) of STC-1 cells. B. Real-time PCR. GAPDH was used as the internal control (BON cell expression was arbitrarily set at 1). All data are mean+/−SD.
(§3) FFAR1 (previously known as GPR40) and FFAR4 (previously known as GPR120) are medium- to long-chain FFA G-protein-coupled receptors that have been implicated in the regulation of energy homeostasis and hormone secretion.

The subject of experiment [4] is AMPK. Description: Western blot of p-AMPK and p-ACC in QGP-1 cells. Format: cell-based, human. The conditions noted are these: OA 1 h. The method, then:
(§4) FIGS. 14A-C show graphs and images illustrating that FFA activates AMPK signaling and increases NT secretion. A. Plasma NT of male C57BL/6 mice (5-mo-old, n=5) 1 h after olive oil (OO) oral gavage. *p<0.05 vs. NC; n=5. B. NT EIA (upper panels) and western blotting (lower panels) on BON cells treated with or without OA for 1 h. C. NT EIA (upper panels) and western blotting (lower panels) on QGP-1 cells treated with or without OA for 1 h. *p<0.05 vs. control; n=6. All data are mean+/−SD. Tissues and cells were lysed with lysis buffer (Cell Signaling Technology), and equal amounts of protein were resolved on 4-12% NuPAGE BisTris gels (Life Technologies) and electrophoretically transferred to polyvinylidene difluoride (PVDF) membranes; the membranes were incubated with primary antibodies overnight at 4° C. followed by secondary antibodies conjugated with horseradish peroxidase. Membranes were developed using chemiluminescence (ECL) Western Blotting System from GE Healthcare Life Science (Piscataway, N.J.) and Thermo Scientific (Waltham, Mass.).

Experiment [5] concerns AMPK. Description: Western blot of p-AMPK and p-ACC in BON cells. The experiment is classed as cell-based, human. The conditions noted are these: OA 1 h. How it is done:
as §4

Another experiment relates to STC-1 cells. Description: NT release from STC-1 cells (NT EIA). The experiment is classed as cell-based, mouse. The conditions noted are these: OA 0.25 mM, phorbol myristate acetate 100 nM.
Description: as §2, §3

Another experiment deals with QGP-1 cells. Description: NT secretion from QGP-1 cells (NT EIA). Format: cell-based, human. The conditions noted are these: OA 1 h. The method, then: FIGS. 14A-C show graphs and images illustrating that FFA activates AMPK signaling and increases NT secretion. A. Plasma NT of male C57BL/6 mice (5-mo-old, n=5) 1 h after olive oil (OO) oral gavage. *p<0.05 vs. NC; n=5. B. NT EIA (upper panels) and western blotting (lower panels) on BON cells treated with or without OA for 1 h. C. NT EIA (upper panels) and western blotting (lower panels) on QGP-1 cells treated with or without OA for 1 h. *p<0.05 vs. control; n=6. All data are mean+/−SD. Fifty μl of media were used to measure NT levels using NT EIA Kit from Phoenix Pharmaceuticals (Burlingame, Calif.) as described previously^30-33.

Description for FHs74Int cells: All data are mean+/−SD. Experiments in vitro were at least repeated three times.
For in vitro FA absorption or lipid accumulation studies, FHs74Int and RIE-1 cells were incubated with either bovine serum albumin (BSA) (Sigma-Aldrich) or BSA-conjugated BODIPY® FL C16 (4,4-Difluoro-5,7-Dimethyl-4-Bora-3a,4a-Diaza-s-Indacene-3-Hexadecanoic Acid) (Life Technologies) for 15 min. BSA-conjugated oleate sodium was also used to treat cells for 1 h; cells were then stained with BODIPY® 493/503 (4,4-Difluoro-1,3,5,7,8-Pentamethyl-4-Bora-3a,4a-Diaza-s-Indacene) (Life Technologies). Images were observed under an FV1000 Olympus confocal microscope with a ×60, 1.35-numerical aperture oil objective (Olympus, Tokyo, Japan). Images were analyzed with Olympus FV10-ASW2.1 software. To quantify green intensity, 3 images were taken at consistent conditions and 10 cells from each image were analyzed using the area tool. […] Cells were collected, lysed and triglyceride content was measured by Triglyceride Determination Kit (Sigma-Aldrich). All experiments were carried in serum-free medium and fatty acid-free BSA was used at 0.1%.

For the compound `NC(=O)c1ncn([C@@H]2O[C@H](CO)[C@@H](O)[C@H]2O)c1N` [AICAR, 5-aminoimidazole-4-carboxamide-1-β-D-ribofuranoside], in experiment [1], the “expression of p-S6K1” value was “decreased expression of p-S6K1” and the p-ERK1/2 result is “increased p-ERK1/2”. Further, in the experiment with FHs74Int cells, the FA absorption result is “concomitantly decreased FA absorption”. Moreover, the “oleate-stimulated p-AMPK” value with AMPK [2] is reported as “further increased oleate-stimulated p-AMPK”. Moreover, the NT secretion entry in the experiment with BON cells (AICAR 1 mM 3 h) is “stimulated NT secretion”.

`CCCCCCCC/C=C\CCCCCCCC(=O)O` [OA, oleic acid]: the p-AMPK expression result with AMPK [3] is “increased p-AMPK expression”. The “phosphorylation of AMPK (p-AMPK)” value with AMPK [4] and with AMPK [5] was “increased phosphorylation” in each case. In addition, the “phosphorylation of acetyl-CoA carboxylase (p-ACC)” value with AMPK [4] and in the experiment on AMPK [5] was “increased phosphorylation” throughout. The NT release result in the experiment with STC-1 cells was “stimulated NT release”. Besides, the NT secretion entry in the experiment with QGP-1 cells and with BON cells (OA 1 h) was “stimulated NT secretion” throughout.
